For 3 compounds, IC50 and inhibition results are on record in ChEMBL document CHEMBL4425128, “Functional Characterization of Cholera Toxin Inhibitors Using Human Intestinal Organoids” (J Med Chem, 2016).

Activity calls are given as the source filed them. The calls are words filed in the database; no cut-off is given here.

A short description of assay [1]: Inhibition of HRP-tagged Vibrio cholerae cholera enterotoxin subunit B5 binding to GM1 coated plates using GM1os-beta-NAc-propargyl.
The nature of assay [2]: Inhibition of cholera toxin in human intestinal organoids assessed as reduction in oganoids swelling using cholera toxin pre-incubated with compound for 4 hrs before organoid stimulation with cholera toxin by calcein AM staining based confocal microscopy. The note with it: Vibrio cholerae, Intestine.
Assay [3] addresses Cystic fibrosis transmembrane conductance regulator (Homo sapiens) (UniProt P13569). Nature of the assay: Inhibition of CFTR in human intestinal organoids assessed as reduction in forskolin-induced oganoids swelling incubated for 4 hrs with cholera toxin followed by subsequent stimulation with 0.1 uM forskolin by calcein AM staining based confocal microscopy. The note with it: Intestine.

Chain of Cystic fibrosis transmembrane conductance regulator (Homo sapiens) (P13569 whole entry, looked up): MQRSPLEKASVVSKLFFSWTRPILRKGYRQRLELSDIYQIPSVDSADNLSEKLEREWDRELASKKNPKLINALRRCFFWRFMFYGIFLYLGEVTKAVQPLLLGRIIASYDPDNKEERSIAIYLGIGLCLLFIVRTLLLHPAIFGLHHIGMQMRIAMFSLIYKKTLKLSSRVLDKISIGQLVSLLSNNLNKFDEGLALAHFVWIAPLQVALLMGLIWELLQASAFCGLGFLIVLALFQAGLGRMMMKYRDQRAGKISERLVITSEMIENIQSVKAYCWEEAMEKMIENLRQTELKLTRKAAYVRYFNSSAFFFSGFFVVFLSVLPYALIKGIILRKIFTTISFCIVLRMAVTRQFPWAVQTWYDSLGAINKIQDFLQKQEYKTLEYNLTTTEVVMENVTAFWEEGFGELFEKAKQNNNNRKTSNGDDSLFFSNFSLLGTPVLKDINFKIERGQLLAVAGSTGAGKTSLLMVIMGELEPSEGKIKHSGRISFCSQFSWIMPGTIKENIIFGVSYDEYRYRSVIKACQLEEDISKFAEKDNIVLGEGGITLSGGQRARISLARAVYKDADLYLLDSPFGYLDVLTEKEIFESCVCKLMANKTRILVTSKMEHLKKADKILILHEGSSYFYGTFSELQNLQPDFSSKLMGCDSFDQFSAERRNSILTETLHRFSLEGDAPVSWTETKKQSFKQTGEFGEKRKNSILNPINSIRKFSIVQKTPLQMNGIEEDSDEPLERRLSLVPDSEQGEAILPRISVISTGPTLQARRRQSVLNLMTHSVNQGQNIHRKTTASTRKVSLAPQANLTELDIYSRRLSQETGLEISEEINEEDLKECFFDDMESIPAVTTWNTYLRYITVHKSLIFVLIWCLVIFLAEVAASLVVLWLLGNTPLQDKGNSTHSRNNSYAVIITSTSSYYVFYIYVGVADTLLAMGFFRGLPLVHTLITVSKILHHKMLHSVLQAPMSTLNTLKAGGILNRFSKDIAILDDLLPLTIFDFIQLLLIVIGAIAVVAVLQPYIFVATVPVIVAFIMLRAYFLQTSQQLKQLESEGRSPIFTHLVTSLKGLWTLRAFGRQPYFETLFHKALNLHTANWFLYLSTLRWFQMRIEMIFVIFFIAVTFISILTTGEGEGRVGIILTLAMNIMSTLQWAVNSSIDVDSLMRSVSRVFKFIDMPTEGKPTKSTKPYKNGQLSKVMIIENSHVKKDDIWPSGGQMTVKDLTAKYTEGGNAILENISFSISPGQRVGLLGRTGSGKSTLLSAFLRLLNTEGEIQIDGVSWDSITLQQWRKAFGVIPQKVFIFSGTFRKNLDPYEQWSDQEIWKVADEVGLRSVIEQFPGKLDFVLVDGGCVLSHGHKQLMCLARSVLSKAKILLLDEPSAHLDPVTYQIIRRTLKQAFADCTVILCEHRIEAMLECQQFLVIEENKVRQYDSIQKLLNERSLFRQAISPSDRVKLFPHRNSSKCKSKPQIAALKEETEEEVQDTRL

One may read the IC50 as the concentration needed to halve the response being measured. In the case of `CC(=O)N[C@H]1[C@H](O[C@@H]2[C@H](O[C@]3(C(=O)O)C[C@H](O)[C@@H](NC(C)=O)[C@H]([C@H](O)[C@H](O)CO)O3)[C@@H](O)[C@H](O[C@H]3[C@H](O)[C@@H](O)[C@H](N(Cc4cn(CCOCCOCCOCCO)nn4)C(C)=O)O[C@@H]3CO)O[C@@H]2CO)O[C@H](CO)[C@H](O)[C@@H]1O[C@@H]1O[C@H](CO)[C@H](O)[C@H](O)[C@H]1O`, the IC50 in assay [1] was 0.11 µM; in assay [2], 0.424 µM. The inhibition result in assay [3] was “inactive”.
On to `O=C[C@H](O)[C@@H](O)[C@@H](O)[C@H](O)CO` [GALACTOSE], for which the IC50 in assay [2] is 9100 µM. For the same compound, the inhibition result in assay [3] is “inactive”.
Consider `CC(=O)N[C@H]1[C@H](O[C@@H]2[C@H](O[C@]3(C(=O)O)C[C@H](O)[C@@H](NC(C)=O)[C@H]([C@H](O)[C@H](O)CO)O3)[C@@H](O)[C@H](O[C@H]3[C@H](O)[C@@H](O)[C@H](N(Cc4cn([C@@H]5[C@@H](OC(C)=O)O[C@@H](n6cc(CN(C(C)=O)[C@@H]7O[C@H](CO)[C@@H](O[C@@H]8O[C@H](CO)[C@H](O[C@@H]9O[C@H](CO)[C@H](O)[C@H](O[C@@H]%10O[C@H](CO)[C@H](O)[C@H](O)[C@H]%10O)[C@H]9NC(C)=O)[C@H](O[C@]9(C(=O)O)C[C@H](O)[C@@H](NC(C)=O)[C@H]([C@H](O)[C@H](O)CO)O9)[C@H]8O)[C@H](O)[C@H]7O)nn6)[C@H](OC(C)=O)[C@H]5OC(C)=O)nn4)C(C)=O)O[C@@H]3CO)O[C@@H]2CO)O[C@H](CO)[C@H](O)[C@@H]1O[C@@H]1O[C@H](CO)[C@H](O)[C@H](O)[C@H]1O`, for which the IC50 in assay [1] is 0.008 µM; in assay [2] it was 0.018 µM. Besides, the inhibition entry in assay [3] was “inactive”.
